Values of other authors as cited in article PMC8091910 (Proteins, 2019).

Columns and labels:
[1] = test system: pancreatic cancer cell (RWP1); conditions: human peptide library screen
[2] = test system: EME1
[3] = test system: MUS81–EME1 complex
[4] = test system: cancer cell lines

binding to EME1 [2]: binds to EME1
Sequence: RTLSQLYCSYGPLT [C-terminal MUS81 peptide]
reduction of cell viability [1]: significantly reduced cell viability
disruption / inhibition of MUS81–EME1 complex [3]: disrupting the MUS81–EME1 complex
reduction of cell viability in cancer cell lines [4]: reducing cell viability in cancer cell lines
